Columns and labels:
Format in all cases: in vivo
[1] = system: BAT and marrow adipose tissue; assay: [18F]F-AraG PET imaging after chronic dosing with BRL37344; details: mice, 3 days+1 h prior to imaging
intrascapular BAT (iBAT) = assay: [18F]F-AraG and FDG PET imaging of BAT in mice treated with BRL37344, insulin or vehicle
iBAT = assay: [18F]F-AraG PET imaging of iBAT in mice with GBM tumors; details: one GBM mouse with highest neuroinflammation
From the text: During our studies into the utility of ^18F-AraG in assessing intracranial T cell infiltration in glioblastoma multiforme (GBM) we made the unexpected and surprising discovery that ^18F-AraG can also image and/or assess the activation of adipose tissue (FIG. 2). Adipose, or fat, tissue (AT) was once considered an inert tissue that primarily existed to store lipids, and was not historically recognized as an important organ in the regulation and maintenance of health. With the rise of obesity and more rigorous research, AT is now recognized as a highly complex metabolic organ involved in a host of important physiological functions, including glucose homeostasis and a multitude of endocrine capabilities. […] The study of AT can provide useful insights in developing strategies to combat these highly prevalent metabolic diseases.
[^18F]F-AraG ability to track stimulated adipocytes allowed observation of activated iBAT in mice with bioluminescently-tagged GBM tumors. The activation occurred at different time points and varied in intensity.

C[C@H](Cc1ccc(OCC(=O)O)cc1)NC[C@H](O)c1cccc(Cl)c1 [BRL37344]
effect of chronic dosing on [18F]F-AraG signal (in words) [1]: increase in [^18F]F-AraG signal not only in the classical, intrascapular BAT. but also in lumbar spinal cord and proximal tibia

Nc1nc2c(ncn2[C@@H]2O[C@H](CO)[C@@H](O)[C@@H]2[18F])c(=O)[nH]1 [[^18F]F-AraG, [18F]-F-arabinofuranosyl guanine]
[18F]F-AraG uptake in iBAT (intrascapular BAT (iBAT); control animals): 4.11±0.76 % ID/g | [18F]F-AraG uptake in iBAT (intrascapular BAT (iBAT); insulin-treated mice): 3.36±0.62 % ID/g | accumulation of [18F]F-AraG in intrascapular BAT (iBAT) (intrascapular BAT (iBAT); mice, BRL37344 administered one hour prior to imaging): 10.98±1.64 % ID/g | iBAT [18F]F-AraG signal (iBAT; OnTx3): 14.92 % ID/g | iBAT [18F]F-AraG signal (iBAT; PreTx): 1.70 % ID/g

Source: US20250166176A1, “METHODS AND MATERIALS FOR IMAGING ADIPOSE TISSUE” (CellSight Technologies Inc., priority 2022, published 2025)
